Reference: PMC10057996, “A Comparative Study of the Inhibitory Action of Berberine Derivatives on the Recombinant Protein FtsZ of E. coli” (International Journal of Molecular Sciences, 2023)
Counter-ions that a name gives are not always drawn.

What was measured:
[1] = biological target: T1, FtsZ (Escherichia coli, UniProt P0A9A6); assay: FtsZ GTPase assay (BIOMOL Green, Pi release); format: biochemical, E. coli; details: for inhibition mechanism on FtsZ GTPase activity: from KM and Vmax changes at 40 µM compound; for Vmax (Pi Released/min): in presence of 40 µM compound, 6 µM FtsZ, pH 6.8, untreated 0.63 ± 0.01
T1 construct: made in house; host or cells: E. coli
Procedure: The functional effect of the berberine analogues 1c,d,f,i, and 1-2g,h on FtsZ was investigated by enzymatic assays. A recombinant form of FtsZ was produced in E. coli, purified according to [21], and used for binding assays. The GTPase activity of the FtsZ protein was assayed in the presence of the berberine-related compounds at 40 μM concentration and was monitored in comparison with the untreated protein at different GTP concentrations. The kinetic parameters were calculated according to the Michaelis–Menten equation using GraphPad Prism 8 for all the berberine-related compounds. The software returned KM (μM) and Vmax (Pi released/min) kinetic parameters that indicated the mechanism of inhibition exerted by each compound.
The determination of the inhibition constant Ki for these compounds was performed to further investigate the mode of inhibition and clarified the potency of the competitive inhibitors. The Ki values were calculated performing kinetic analyses at different concentrations of competitive inhibitors (20 μM, 40 μM, and 60 μM).
The FtsZ GTPase assay was performed using 6 μM FtsZ in reaction buffer 25 mM PIPES/NaOH, pH 6.8. The mixture containing FtsZ was incubated for 30 min at 30 °C, and different concentrations of GTP (from 0 µM to 500 µM) were added for a reaction time of 10 min, either in the absence or in the presence of 40 µM 1c, 1d, 1f, 1i, 1g, 1h, 2g, and 2h. The reaction was performed for 10 min and stopped by the addition of 100 µL BIOMOL Green reagent. The amount of Pi released during the assembly of FtsZ was monitored using BIOMOL Green phosphate reagent (Biomol, Milan, Italy) after incubation at 25 °C for 25 min by measuring the absorbance at 620 nm. The negative control (without enzyme) was subtracted from all the readings. The experiment was performed in duplicate. The data were elaborated in order to report U/mg VS substrate concentration, and kinetic parameters were fitted by nonlinear regression with GraphPad Prism 8 (GraphPad Software, San Diego, CA, USA). The inhibition constant (Ki) for all competitive inhibitors was calculated performing different kinetic analyses in the presence of 20, 40, and 60 µM of compounds and using the following equation: Ki=I/α−1 where α=KMapp/KM

[2] = biological target: T1, FtsZ; assay: Fluorescence binding assay (quenching of compound fluorescence by FtsZ); set-up: species or system E. coli; details: dissociation constant Kd, excitation 295 nm, emission 327 nm, 20 °C
Procedure: Therefore, the intrinsic fluorescence of compound 1c was monitored at increasing concentrations of recombinant FtsZ. The sample was excited at 295 nm, and the fluorescence emission of the compound 1c was recorded.
A 1.5 mL solution containing the 1c compound was titrated by successive additions of FtsZ protein (from 0.010 to 0.120 µM). Titrations were done manually, and fluorescence spectra were measured in the range of 280–500 nm at the excitation wavelength of 295 nm. The fluorescence spectra were recorded using a Horiba Scientific Fluoromax-4 spectrofluorometer, using a quartz cell with an optical path of 1 cm, under controlled temperature conditions (Peltier control system at 20 °C). All experiments were carried out in duplicate. The change in the fluorescence intensity of the reaction set was fitted into the “one site-specific binding” equation of GraphPad Prism 8 (GraphPad Software, San Diego, CA, USA).
Figure 6 Fluorescence binding assay of compound 1c with FtsZ. (a) Emission fluorescence spectra at different concentrations of FtsZ. (b) ΔF at 325 nm vs FtsZ concentration. Experimental data were adjusted to a non-linear regression, and the Kd binding constant was estimated using GraphPad Prism 8. The experiments were performed in duplicate, and the standard deviation is reported as error bars.

[3] = biological target: T1, FtsZ; assay: FtsZ polymerization assay by sedimentation, SDS-PAGE densitometry; format: biochemical, E. coli; details: inhibitor concentration 60 µM, 150 µM GTP
Procedure: Inhibition of the GTPase activity of FtsZ might prevent the polymerization of the protein, which is well known to occur in the presence of GTP. We then investigated the effect of berberine analogues on the polymerization of FtsZ. The recombinant protein was incubated with 150 µM GTP in the absence and in the presence of increasing concentrations of berberine-related compounds. The FtsZ filaments were purified by centrifugation, analysed by SDS-PAGE, and the amount of polymerized protein was determined by densitometric analysis of the corresponding Coomassie-stained gel bands.
Assays for FtsZ polymerization by sedimentation were performed by incubating 6 μM FtsZ with 150 µM GTP in 25 mM PIPES/NaOH, pH 6.8 for 60 min at 25 °C. The assays were carried out in the presence and in the absence of 20 μM, 40 μM, and 60 μM of berberine analogues. The reaction mixtures were centrifuged for 60 min at 14,000 rpm, the pellets were run on 12.5% sodium dodecyl sulphate (SDS)-polyacrylamide gels, and stained by Coomassie blue. Subsequently, the images of the gels were acquired by ChemiDocTM, and the relative amount of FtsZ in the bands was determined densitometrically using the Quantity One software.
Figure 3 Polymerization assay of recombinant FtsZ (6 µM) was carried out in 25 mM PIPES/NaOH, pH 6.8, and 150 µM of GTP in the presence of berberine analogues. […]

[4] = biological target: T1, FtsZ; assay: TEM microscopy of FtsZ protofilaments; format: biochemical, E. coli; details: 60 µM compound, 150 µM GTP
Procedure: The capability of berberine analogue 1i to inhibit FtsZ polymerization was also assessed by TEM microscopy, by analysing the FtsZ protofilaments of in the presence of 60 µM 1i in comparison with the untreated sample.
FtsZ polymerization reaction solutions were diluted 1:10 in polymerization buffer in the presence and in the absence of 60 µM 1c and 1i. Then, 5 µL drops of the samples for TEM analysis were placed on a carbon-coated copper TEM grid for 20 min. Excess solution was wicked away with filter paper. Negative staining with 1% phosphotungstic acid (PTA) solution at pH 7.0 was carried out by depositing a drop of PTA solution on the grid for 1 min and then blotted dry with filter paper. The grid was allowed to dry, and images were collected using a FEI TECNAI G2 S-twin apparatus operating at 120 kV (LaB6 source).
Figure 4 Transmission electron microscopic images of FtsZ in the absence (a) and in the presence of 1i inhibitors (b). The protofilaments are seen to be polymerized in an organized manner in the absence of inhibitor (a). 1i at 60 μM concentrations inhibit the FtsZ polymerization. Experimental conditions for all the FtsZ polymerization studies were […], PIPES 25 mM pH 6.8, KCl 50 mM, and 150 µM GTP.

[5] = tested on: E. coli; assay: Minimum inhibitory concentration determination; format: cell-based; details: Escherichia coli, 24 h, read-out: MIC E. coli
Procedure: Finally, we evaluated the in vitro antimicrobial activity of the newly synthesized berberine analogues (2g,h) on E. coli strain. The Minimal Inhibitory Concentrations (MICs) of both compounds were determined as the lowest concentration showing no visible growth after 24 h of incubation. The MIC values for 2g and 2h are reported in Table 4, together with the most interesting compounds previously reported.
In brief, the bacterial strain was incubated overnight in LB at 37 °C. The cultures were diluted approximately to 5 × 10^5 CFU/mL, and 50 μL of bacterial suspension was added to ten wells and incubated with serial dilutions of berberine analogues from an initial concentration of 500 µM. The sterility control well contained 100 μL of LB, while the growth control well contained 100 μL of microbial suspension. […] All determinations of all assays were performed in triplicate.

T1 sequence (P0A9A6 whole entry): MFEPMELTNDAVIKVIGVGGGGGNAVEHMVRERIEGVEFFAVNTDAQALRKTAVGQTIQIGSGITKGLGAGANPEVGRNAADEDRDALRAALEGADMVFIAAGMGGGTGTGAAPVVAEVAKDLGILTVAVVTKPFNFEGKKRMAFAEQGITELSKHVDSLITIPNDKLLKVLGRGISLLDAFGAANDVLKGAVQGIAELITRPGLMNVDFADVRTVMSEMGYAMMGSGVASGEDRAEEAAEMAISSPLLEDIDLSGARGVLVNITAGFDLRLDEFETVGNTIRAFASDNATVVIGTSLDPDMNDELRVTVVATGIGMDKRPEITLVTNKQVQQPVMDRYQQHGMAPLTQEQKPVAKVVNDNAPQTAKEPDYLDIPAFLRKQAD

| SMILES | Ki [1] [µM] | inhibition mechanism on FtsZ GTPase activity [1] | Vmax (Pi Released/min) [1] [Pi released/min] | Kd [2] [µM] | amount of polymerized FtsZ [3] | FtsZ protofilaments observed by TEM [4] | MIC [5] [µM] | melting point [°C] |
| --- | --- | --- | --- | --- | --- | --- | --- | --- |
| COc1cccc(CN(C)CCc2ccc3c(c2)OCO3)c1OC [1c] | 25 | classical competitive inhibition mechanism | 0.54 ± 0.03 | 0.0266 | – | – | – | – |
| CCN(CCc1ccc2c(c1)OCO2)Cc1cccc(OC)c1OC [1d] | 44 | classical competitive inhibition mechanism | 0.58 ± 0.01 | – | – | – | – | – |
| CCCCCCN(CCc1ccc2c(c1)OCO2)Cc1cccc(OC)c1OC [1f] | – | non-competitive inhibition mechanism | 0.35 ± 0.01 | – | – | – | – | – |
| Clc1ccc(CNCCc2ccc3c(c2)OCO3)cc1 [1g] | 41 | classical competitive inhibition mechanism | 0.60 ± 0.02 | – | – | – | – | – |
| c1ccc2c(CNCCc3ccc4c(c3)OCO4)cccc2c1 [1h] | 119 | classical competitive inhibition mechanism | 0.59 ± 0.01 | – | – | – | – | – |
| O=[N+]([O-])c1ccccc1CNCCc1ccc2c(c1)OCO2 [1i] | – | non-competitive inhibition mechanism | – | – | almost negligible | no protofilaments could be observed | – | – |
| CN(CCc1ccc2c(c1)OCO2)Cc1ccc(Cl)cc1 [2g, 2-(1,3-Benzodioxol-5-yl)-N-[(4-chlorobenzyl]-N-methylethan-1-amine hydrochloride] | – | acompetitive inhibitory mechanism | – | – | – | – | 128 | – |
| CN(CCc1ccc2c(c1)OCO2)Cc1cccc2ccccc12.Cl [2h, 2-(2H-1,3-Benzodioxol-5-yl)-N-methyl-N-[(naphthalen-1-yl)methyl]ethan-1-amine hydrochloride] | 51 | classical competitive inhibition mechanism | 0.58 ± 0.01 | – | – | – | > 512 | 188 to 190 |
